Assay results published in US9512075B2 (OKAYAMA UNIVERSITY, priority 2012, dated 2016).
Values after ≈ are worked out from the molar mass of the structure shown. Read-outs that look alike come from different tables or passages of the source.

Tests used:
Format in all cases: cell-based
[1] = test system: Escherichia coli BE1121 strain; assay: MIC for Escherichia coli BE1121 strain; conditions: Escherichia coli, BE1121STRAIN, read-out: MIC Escherichia coli BE1121
[2] = test system: Escherichia coli K-12 strain; assay: MIC for Escherichia coli K-12 strain; conditions: Escherichia coli, K12STRAIN, read-out: MIC Escherichia coli K12
[3] = test system: Enterococcus faecalis NCTC12201 strain (vancomycin-resistant Enterococcus: VRE); assay: MIC for Enterococcus faecalis NCTC12201 strain (VRE); conditions: read-out: MIC Enterococcus faecalis NCTC 12201 (VRE)
[4] = test system: Staphylococcus aureus Smith strain; assay: MIC for Staphylococcus aureus Smith strain; conditions: read-out: MIC Straphyrococcus aureus Smith
[5] = test system: Staphylococcus aureus 209P strain; assay: MIC for Staphylococcus aureus 209P strain; conditions: Staphylococcus aureus, read-out: MIC Straphyrococcus aureus 209P
[6] = test system: Staphylococcus aureus MRSA No. 17 (methicillin-resistant Staphylococcus aureus: MRSA); assay: MIC for Staphylococcus aureus MRSA No. 17; conditions: read-out: MIC Straphyrococcus aureus MRSA No. 17 (MRSA)
[7] = test system: Clostridium perfringens PB6K strain; assay: microbe, parasite or virus in culture; conditions: Clostridium perfringens, PB6KSTRAIN, read-out: MIC Clostridium perfringens PB6K, PB6K strain; CD medium, 37° C. overnight, 10% CO2-containing anaerobic conditions
[8] = test system: Enterococcus faecalis 5038 strain; assay: MIC for Enterococcus faecalis 5038 strain; conditions: read-out: MIC Enterococcus faecalis 5038
[9] = test system: Clostridium difficile JCM1296 strain; assay: microbe, parasite or virus in culture; conditions: Clostridioides difficile, JCM1296, read-out: MIC Clostridium difficile JCM1296
[10] = BE1121 strain, regular bouillon medium, 37° C. overnight, turbidity
[11] = K-12 strain, regular bouillon medium, 37° C. overnight, turbidity
[12] = NCTC12201 strain (VRE), Heart Infusion Broth medium, 37° C. overnight, turbidity
[13] = Smith strain, regular bouillon medium, 37° C. overnight, turbidity
[14] = 209P strain, regular bouillon medium, 37° C. overnight, turbidity
[15] = MRSA No. 17, regular bouillon medium, 37° C. overnight, turbidity
[16] = 5038 strain, Heart Infusion Broth medium, 37° C. overnight, turbidity

Compound | MIC [1] [µg/mL] | MIC [2] [µg/mL] | MIC [3] [µg/mL] | MIC [4] [µg/mL] | MIC ([5]; 209P) [µg/mL] | MIC ([6]; MRSA) [µg/mL] | MIC [7] [µg/mL] | MIC ([8]; 5038STRAIN) [µg/mL] | MIC [9] [µg/mL] | MIC [1, 10] [µg/mL] | MIC [2, 11] [µg/mL] | MIC [3, 12] [µg/mL] | MIC [4, 13] [µg/mL] | MIC [5, 14] [µg/mL] | MIC [6, 15] [µg/mL] | MIC [8, 16] [µg/mL]
CCCCCCCCNC(=O)N1C(=O)C(=C(O)c2ccccc2)c2ccccc21 [A031, N-(octylaminocarbonyl)-3-benzoyl-2-oxyindole] | 256 (≈ 652 µM) | 256 (≈ 652 µM) | 0.25 (≈ 0.637 µM) | 0.5 (≈ 1.27 µM) | 0.25 (≈ 0.637 µM) | 256 (≈ 652 µM) | 0.25 (≈ 0.637 µM) | 25 (≈ 63.7 µM) | 0.25 (≈ 0.637 µM) |  |  |  |  |  |  | 
CCCCCCCCCC(O)=C1C(=O)N(C(=O)Nc2ccccc2)c2ccc(Br)cc21 [A033, N-(phenylaminocarbonyl)-5-bromo-3-decanoyl-2-oxyindole] |  |  |  |  |  |  | 0.5 (≈ 1.03 µM) |  | 0.5 (≈ 1.03 µM) | 128 (≈ 264 µM) | 256 (≈ 527 µM) | 256 (≈ 527 µM) | 256 (≈ 527 µM) | 256 (≈ 527 µM) | 256 (≈ 527 µM) | 256 (≈ 527 µM)
CCCCC1CCC(C(O)=C2C(=O)N(C(=O)Nc3ccccc3)c3ccc(Br)cc32)CC1 (stereo not drawn) [A034, N-(phenylaminocarbonyl)-5-bromo-3-(4-butylcyclohexylcarbonyl)-2-oxyindole] |  |  |  |  |  |  | 0.5 (≈ 1.01 µM) |  | 0.5 (≈ 1.01 µM) | 128 (≈ 257 µM) | 128 (≈ 257 µM) | 1 (≈ 2.01 µM) | 1 (≈ 2.01 µM) | 32 (≈ 64.3 µM) | 64 (≈ 129 µM) | 1 (≈ 2.01 µM)
CCCCCCCCCCOCC(O)=C1C(=O)N(C(=O)Nc2ccccc2)c2ccc(Br)cc21 [A035, N-(phenylaminocarbonyl)-5-bromo-3-decyloxyacetyl-2-oxyindole] |  |  |  |  |  |  | 0.25 (≈ 0.472 µM) |  | 0.5 (≈ 0.944 µM) | 128 (≈ 242 µM) | 128 (≈ 242 µM) | 2 (≈ 3.78 µM) | 8 (≈ 15.1 µM) | 64 (≈ 121 µM) | 64 (≈ 121 µM) | 4 (≈ 7.55 µM)
CCCCCCCCCCOCC(O)=C1C(=O)N(C(=O)Nc2ccccc2)c2ccc(F)cc21 [A036] |  |  |  |  |  |  | 0.25 (≈ 0.534 µM) |  | 0.25 (≈ 0.534 µM) | 128 (≈ 273 µM) | 128 (≈ 273 µM) | 0.5 (≈ 1.07 µM) | 0.25 (≈ 0.534 µM) | 128 (≈ 273 µM) | 128 (≈ 273 µM) | 0.5 (≈ 1.07 µM)
CCCCCCCCCCSCC(O)=C1C(=O)N(C(=O)Nc2ccccc2)c2ccc(F)cc21 [A037, N-(phenylaminocarbonyl)-3-decylthioacetyl-5-fluoro-2-oxyindole] |  |  |  |  |  |  | 1 (≈ 2.06 µM) |  | 0.5 (≈ 1.03 µM) | 256 (≈ 528 µM) | 256 (≈ 528 µM) | 0.5 (≈ 1.03 µM) | 0.25 (≈ 0.516 µM) | 2 (≈ 4.13 µM) | 2 (≈ 4.13 µM) | 0.5 (≈ 1.03 µM)
CCCCCCCCCCOCC(O)=C1C(=O)N(C(=O)Nc2ccc(Br)cc2)c2ccccc21 [A038, N-(4-bromophenylaminocarbonyl)-3-decyloxyacetyl-2-oxyindole] |  |  |  |  |  |  | 16 (≈ 30.2 µM) |  | 32 (≈ 60.4 µM) | 128 (≈ 242 µM) | 128 (≈ 242 µM) | 16 (≈ 30.2 µM) | 64 (≈ 121 µM) | 64 (≈ 121 µM) | 64 (≈ 121 µM) | 8 (≈ 15.1 µM)
CCCCCCCCCC(O)=C1C(=O)N(C(=O)Nc2ccc(Br)cc2)c2ccccc21 [A039, N-(4-bromophenylaminocarbonyl)-3-decanoyl-2-oxyindole] |  |  |  |  |  |  | 64 (≈ 132 µM) |  | 64 (≈ 132 µM) | 256 (≈ 527 µM) | 256 (≈ 527 µM) | 256 (≈ 527 µM) | 256 (≈ 527 µM) | 256 (≈ 527 µM) | 256 (≈ 527 µM) | 256 (≈ 527 µM)
CCCCC1CCC(C(O)=C2C(=O)N(C(=O)Nc3ccc(Br)cc3)c3ccccc32)CC1 (stereo not drawn) [A040, N-(4-bromophenylaminocarbonyl)-3-(4-butylcyclohexylcarbonyl)-2-oxyindole] |  |  |  |  |  |  | 4 (≈ 8.04 µM) |  | 8 (≈ 16.1 µM) | 256 (≈ 515 µM) | 256 (≈ 515 µM) | 1 (≈ 2.01 µM) | 2 (≈ 4.02 µM) | 128 (≈ 257 µM) | 128 (≈ 257 µM) | 1 (≈ 2.01 µM)
CCCCCCCCCCOCC(O)=C1C(=O)N(C(=O)Nc2ccc(F)cc2)c2ccccc21 [A041, N-(4-fluorophenylaminocarbonyl)-3-decyloxyacetyl-2-oxyindole] |  |  |  |  |  |  | 8 (≈ 17.1 µM) |  | 0.5 (≈ 1.07 µM) | 256 (≈ 546 µM) | 128 (≈ 273 µM) | 4 (≈ 8.54 µM) | 4 (≈ 8.54 µM) | 256 (≈ 546 µM) | 256 (≈ 546 µM) | 2 (≈ 4.27 µM)
CCCCCCCCCC(O)=C1C(=O)N(C(=O)Nc2ccc(F)cc2)c2ccccc21 [A042, N-(4-fluorophenylaminocarbonyl)-3-decanoyl-2-oxyindole] |  |  |  |  |  |  | 1 (≈ 2.36 µM) |  | < 0.125 | 256 (≈ 603 µM) | 256 (≈ 603 µM) | 4 (≈ 9.42 µM) | 0.5 (≈ 1.18 µM) | 256 (≈ 603 µM) | 256 (≈ 603 µM) | 2 (≈ 4.71 µM)
CCCCC1CCC(C(O)=C2C(=O)N(C(=O)Nc3ccc(F)cc3)c3ccccc32)CC1 (stereo not drawn) [A043, N-(4-fluorophenylaminocarbonyl)-3-(4-butylcyclohexylcarbonyl)-2-oxyindole] |  |  |  |  |  |  | 4 (≈ 9.16 µM) |  | 1 (≈ 2.29 µM) | 256 (≈ 586 µM) | 256 (≈ 586 µM) | 1 (≈ 2.29 µM) | 1 (≈ 2.29 µM) | 256 (≈ 586 µM) | 128 (≈ 293 µM) | 1 (≈ 2.29 µM)
CCCCCCCCCC(O)=C1C(=O)N(C(=O)Nc2ccccc2)c2ccc(F)cc21 [A044, N-(phenylaminocarbonyl)-3-decanoyl-5-fluoro-2-oxyindole] |  |  |  |  |  |  | < 0.125 |  | < 0.125 | 256 (≈ 603 µM) | 256 (≈ 603 µM) | 0.5 (≈ 1.18 µM) | 0.25 (≈ 0.589 µM) | 256 (≈ 603 µM) | 256 (≈ 603 µM) | 1 (≈ 2.36 µM)
CCCCCCCCCCOCC(O)=C1C(=O)N(C(=O)Nc2ccc(OC)cc2)c2ccccc21 [A045, N-(4-methoxyphenylaminocarbonyl)-3-decyloxyacetyl-2-oxyindole] |  |  |  |  |  |  | 8 (≈ 16.6 µM) |  | 0.5 (≈ 1.04 µM) | 128 (≈ 266 µM) | 128 (≈ 266 µM) | 64 (≈ 133 µM) | 128 (≈ 266 µM) | 256 (≈ 533 µM) | 256 (≈ 533 µM) | 4 (≈ 8.32 µM)
CCCCCCCCCC(O)=C1C(=O)N(C(=O)Nc2ccc(OC)cc2)c2ccccc21 [A046, N-(4-methoxyphenylaminocarbonyl)-3-decanoyl-2-oxyindole] |  |  |  |  |  |  | 8 (≈ 18.3 µM) |  | 1 (≈ 2.29 µM) | 256 (≈ 586 µM) | 256 (≈ 586 µM) | 256 (≈ 586 µM) | 256 (≈ 586 µM) | 256 (≈ 586 µM) | 256 (≈ 586 µM) | 256 (≈ 586 µM)
CCCCCCCCCCOCC(O)=C1C(=O)N(C(=O)Nc2ccc(OC)cc2)c2ccc(F)cc21 [A047, N-(4-methoxyphenylaminocarbonyl)-3-decyloxyacetyl-5-fluoro-2-oxyindole] |  |  |  |  |  |  | 0.25 (≈ 0.501 µM) |  | 1 (≈ 2.01 µM) | 128 (≈ 257 µM) | 128 (≈ 257 µM) | 16 (≈ 32.1 µM) | 8 (≈ 16 µM) | 128 (≈ 257 µM) | 128 (≈ 257 µM) | 4 (≈ 8.02 µM)
CCCCCCCCCC(O)=C1C(=O)N(C(=O)Nc2ccc(OC)cc2)c2ccc(F)cc21 [A048, N-(4-methoxyphenylaminocarbonyl)-3-decanoyl-5-fluoro-2-oxyindole] |  |  | 256 (≈ 563 µM) | 256 (≈ 563 µM) |  | 256 (≈ 563 µM) | 256 (≈ 563 µM) |  | 32 (≈ 70.4 µM) | 256 (≈ 563 µM) | 256 (≈ 563 µM) |  |  | 256 (≈ 563 µM) |  | 128 (≈ 282 µM)
CCCCCCCCCC(=O)N1C(=O)/C(=C(\O)COC)c2ccccc21 [A049, N-decanoyl-3-methoxyacetyl-2-oxyindole] |  |  |  |  |  |  | 0.5 (≈ 1.39 µM) |  | 0.5 (≈ 1.39 µM) | 128 (≈ 356 µM) | 256 (≈ 712 µM) | 0.5 (≈ 1.39 µM) | 1 (≈ 2.78 µM) | 256 (≈ 712 µM) | 256 (≈ 712 µM) | 0.5 (≈ 1.39 µM)
